Data taken from US20080287481A1, “PROCESS FOR THE PREPARATION OF DES[…] MIXTURES” (priority 2006, published 2008).

Details: all storage conditions of the table; consistency in the IR pattern
Excerpt: The term “stable” is used to describe an intimate mixture of desloratadine Form I and Form II that maintains the initial weight ratio of forms during formulation into a pharmaceutical dosage form and thereafter during a commercially useful period of normal storage and use, such as about one year, about 18 months, about two years, or any other desired period. […] Stability testing procedures are well known in the pharmaceutical industry.

For Clc1ccc2c(c1)CCc1cccnc1C2=C1CCNCC1 [8-chloro-6,11-dihydro-11-(4-piperidylidene)-5H-benzo[5,6]cyclohepta[1,2-b]pyridine], the “interconversion of forms during the storage period” value was “no interconversion of forms”.
